Reference: PMC11063903, “Engineering a human P2X2 receptor with altered ligand selectivity in yeast” (The Journal of Biological Chemistry, 2024)
Substitutions are numbered along the chain they refer to.

Columns and labels:
WT P2X2 = target: T1, WT P2X2 (Homo sapiens, UniProt Q9UBL9); assay: Fast GCaMP-mScarletI assay in yeast, WT P2X2; format: cell-based; settings: for Bottom, best fit value / Hillslope, best fit value / Top, best fit value: four-parameter logistic fit of ΔF/ΔT
T1 construct: expressed in transfected cells; host or cells: S. cerevisiae BY4741 background, P2X2 genome-integrated under a galactose-inducible promoter
T1 sequence (Q9UBL9 1-471): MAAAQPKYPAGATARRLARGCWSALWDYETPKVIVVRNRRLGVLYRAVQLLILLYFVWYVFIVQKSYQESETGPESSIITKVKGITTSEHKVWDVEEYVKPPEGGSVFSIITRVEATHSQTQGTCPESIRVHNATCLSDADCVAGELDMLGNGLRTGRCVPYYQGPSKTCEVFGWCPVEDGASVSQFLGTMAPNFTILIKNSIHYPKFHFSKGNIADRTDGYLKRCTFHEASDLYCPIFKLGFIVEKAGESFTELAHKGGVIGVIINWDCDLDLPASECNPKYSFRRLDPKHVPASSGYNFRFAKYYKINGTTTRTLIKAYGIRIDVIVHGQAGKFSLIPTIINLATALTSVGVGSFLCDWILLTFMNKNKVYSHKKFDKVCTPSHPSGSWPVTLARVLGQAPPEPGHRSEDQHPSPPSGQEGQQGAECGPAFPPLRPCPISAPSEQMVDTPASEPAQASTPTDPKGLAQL
Experimental: (§1) Figure 4 Unnatural-ligand gating in LBD libraries.A, WT P2X2 was tested with 1 mM ATP, 500 μM AMP-PNP, and compared to ATP with the broken receptor (K81C K83C) control with 1 mM ATP in the fast GCaMP-mScarletI assay (n = 3). […] B, heat map summarizing AMP-PNP signaling (ΔF/ΔT, fast GCaMP-mScarletI assay) in the site-saturation libraries (n = 2–3). All values are normalized to WT P2X2 with saturating amounts of AMP-PNP (500 μM) and therefore represent low signal (ΔF/ΔT) compared to the ATP ligand. C, F301W, F303Y, and A304W were combinatorially combined and tested against the WT, K81C K83C broken P2X2, and the single mutant clones with both ATP (1 mM, black) and AMP-PNP (500 μM, pink). […] Values here represent signal onset and are not normalized to a positive control (n = 2–5). D–K, dose response of each P2X variant with both ATP (black) and AMP-PNP (pink) in the fast GCaMP-mScarletI assay (n = 3). Statistics were performed via one-way ANOVA with Dunnett’s multiple comparisons with to the “broken” K81C K83C negative control. ∗ represents a p value ≤0.05, ∗∗ is p ≤ 0.01, and ∗∗∗ is p ≤ 0.001.
(§2) Given that the yeast-based screen seemed to recapitulate important structural and functional features of human ion channel function, we hypothesized that it might be possible to engineer new P2X2 functionalities in yeast, including new ligand specificity. […] We screened our 133-member library in the presence of 500 μM AMP-PNP (Fig. S7). While the AMP-PNP signal was uniformly low, three substitutions (F301W, F303Y, and A304W) increased signaling 2.5 to 2.8 times relative to the negative control receptor (Figs. 4B, and S7, D, F, and G). To gain a more complete view of the properties of these mutants, dose–response curves were generated with ATP and AMP-PNP (Fig. 4, D–G, and Table S2).
(§3) GCaMP assays were performed as follows. P2X2 GCaMP strains were designed with a bi-cistronic reporter, in which the GCaMP protein was followed by a 2A peptide and a mScarletI reporter ([53]). The co-translated mScarletI was designed to act as a control for plasmid loss, GCaMP breakage via nonsense mutation, and contamination. […] P2X2-GCaMP strains were cultured and induced as previously described. Samples were induced for 24 h to allow for the accumulation of the mature GCaMP protein. Cells were washed three times in 0.1 M MES/Tris buffer and resuspended with MES/Tris with supplemental calcium. Cells were loaded onto a black, clear bottom microplate and imaged on a FlexStation3 plate reader. Samples were imaged in “flex” mode. Samples were imaged for 48 s at an interval of 1.6 s. Fluorescence was measured with an excitation at 485 nm, and emission 525 nm. At the 21 s mark, 100 μl ligand solution was transferred to the cells. For strains with mScarlet, fluorescence was read with excitation 570 nm/emission 610 nm. Slopes were calculated from the last 6 points of measurement and were normalized to the positive control samples. Any replicate in which the mScarlet value was measured to be over 2 standard deviations less than the mean for that set was discarded from further analysis.
(§4) For multiple comparisons in the site-saturation screening data, One-way ANOVA with Dunnett’s multiple comparisons test was performed where every sample was compared to the “broken” negative control. Significance was plotted where ∗ represents a p value ≤0.05, ∗∗ is p ≤0.01, and ∗∗∗ is p ≤0.001. Dose–response curves were fit with nonlinear regression software using a four-parameter logistic curve. All statistics were calculated and plotted in Graphpad Prism software.

P2X2 F303Y = target: T2, P2X2 F303Y (Homo sapiens, UniProt Q9UBL9, F303Y); assay: Fast GCaMP-mScarletI assay in yeast, P2X2 F303Y; format: cell-based; settings: for Bottom, best fit value / Hillslope, best fit value / Top, best fit value: four-parameter logistic fit of ΔF/ΔT; for Bottom, best fit value / Hillslope, best fit value / Top, best fit value / EC50: n = 3; for EC50: four-parameter logistic fit, unit inferred, unit M, read-out: EC50, best fit value
T2 construct: expressed in transfected cells; host or cells: S. cerevisiae BY4741 background
T2 sequence (Q9UBL9 1-471 F303Y): T1 sequence (Q9UBL9 1-471) with F303Y
Experimental: as §1, §2, §3, §4

| signal of wildtype P2X2 receptor (WT P2X2; 500 μM AMP-PNP, Fig. 4A) | activity compared to the wild-type (P2X2 F303Y; AMP-PNP dose-response, Fig. 4D-G, Table S2) [fold] | Compound | Bottom, best fit value (WT P2X2; n = 3) | Hillslope, best fit value (WT P2X2; n = 3) | Top, best fit value (WT P2X2; n = 3) | Bottom, best fit value (P2X2 F303Y) | Hillslope, best fit value (P2X2 F303Y) | Top, best fit value (P2X2 F303Y) | EC50 (P2X2 F303Y) [µM] | EC50 (WT P2X2; four-parameter logistic fit, n = 3, unit inferred, unit M, read-out: EC50, best fit value) [µM] |
| --- | --- | --- | --- | --- | --- | --- | --- | --- | --- | --- |
| nearly undetectable signal | 1.89 | Nc1ncnc2c1ncn2[C@@H]1O[C@H](COP(=O)(O)OP(=O)(O)NP(=O)(O)O)[C@@H](O)[C@H]1O [AMP-PNP] | 0.429 | -1 | 1.129 | 0.2603 | 0.8857 | 2.141 | 328 |  |
|  |  | Nc1ncnc2c1ncn2[C@@H]1O[C@H](COP(=O)(O)OP(=O)(O)OP(=O)(O)O)[C@@H](O)[C@H]1O [ATP] | 1.37 | 2.27 | 70.62 | 0.80 | 2.18 | 68.07 | 3.6 | 5.75 |
